Source: patent US4102994A, “Aliphatic amido-quaternary ammonium anti-microbial compounds” (Colgate-Palmolive Company, priority 1977, dated 1978)
Read-outs that look alike come from different tables or passages of the source.

Legend:
T. mentagrophytes = test: Test tube serial dilution test (minimal inhibitory concentration); format: cell-based, Trichophyton mentogrophytes; details: Trichophyton mentagrophytes
Method: (§1) The anti-microbial nature of the instant novel compounds was shown by a standard test tube serial dilution test in which an appropriate number of test tubes of broth containing decreasing concentrations of the test agent was innoculated with the test organism. After a suitable period of incubation, the tubes were examined for the presence or absence of growth. The activity of the test agent was the lowest concentration which inhibited the growth of the organism and is expressed as the minimal inhibitory concentration in ppm. As shown in the following table of antimicrobial data, a definite break occurs between compounds wherein R^4 contains 8 carbons and 10 carbons.

Str. mitis = test: as above; format: cell-based; details: Streptococcus mitis
Method: as §1

C. albicans = test: as above; format: cell-based; details: Candida albicans
Method: as §1

S. aureus = test: as above; format: cell-based; details: Staphylococcus aureus
Method: as §1

E. coli = test: as above; format: cell-based; details: Escherichia coli
Method: as §1

A. niger = test: as above; format: cell-based; details: Aspergillus niger, broth serial dilution, read-out: Minimum Inhibitory Concentration
Method: as §1

Str. mutans = test: as above; format: cell-based; details: Streptococcus mutans, broth serial dilution, read-out: Minimum Inhibitory Concentration
Method: as §1

Str. sanguis = test: as above; format: cell-based; details: Streptococcus, broth serial dilution, read-out: Minimum Inhibitory Concentration
Method: as §1

A. naeslundii = test: as above; format: cell-based, Actinomycetes naeslundii; details: Actinomyces naeslundii, broth serial dilution, read-out: Minimum Inhibitory Concentration
Method: as §1

P. aeruginosa = test: as above; format: cell-based; details: Pseudomonas aeruginosa, broth serial dilution, read-out: Minimum Inhibitory Concentration
Method: as §1

dental calculus = test: Dental calculus inhibition in rats on Zipkin-McClure calculus producing diet, Baer's method; format: in vivo, littermated albino rats; details: .1% test solution, teeth swabbed thirty seconds each day for six weeks, vs water control, 99% significant
Excerpt: The quaternary ammonium amides of adamantanecarboxylic acid are particularly effective in inhibiting the development of dental calculus as shown by the results of tests on littermated albino rats, in groups of 15 males and 15 females who were fed a Zipkin-McClure calculus producing diet. For six weeks the teeth of each animal were swabbed for thirty seconds each day with a test solution or water for the control group. The animals were then sacrificed, defleshed and scored by Baer's method for calculus. The results were analyzed by Student's "t" test and in the results quoted were 99% significant.

[1] = T. mentagrophytes, broth serial dilution, read-out: Minimum Inhibitory Concentration
[2] = Str. mitis, broth serial dilution, read-out: Minimum Inhibitory Concentration
[3] = C. albicans, broth serial dilution, read-out: Minimum Inhibitory Concentration
[4] = S. aureus, broth serial dilution, read-out: Minimum Inhibitory Concentration
[5] = E. coli, broth serial dilution, read-out: Minimum Inhibitory Concentration
[6] = Table III, no quantity or unit printed in the table, minimal inhibitory concentration in ppm, read-out: antimicrobial results, T.mentagrophytes (Table III)
[7] = Table III, no quantity or unit printed in the table, minimal inhibitory concentration in ppm, read-out: antimicrobial results, S.mitis (Table III)
[8] = Table III, no quantity or unit printed in the table, minimal inhibitory concentration in ppm, read-out: antimicrobial results, C.albicans (Table III)
[9] = read-out: antimicrobial results, S.aureus (Table III)
[10] = Table III, no quantity or unit printed in the table, minimal inhibitory concentration in ppm, read-out: antimicrobial results, E.coli (Table III)

Row | Compound | MIC (T. mentagrophytes; [1]) [µg/mL] | MIC (Str. mitis; [2]) [µg/mL] | MIC (C. albicans; [3]) [µg/mL] | MIC (S. aureus; [4]) [µg/mL] | MIC (E. coli; [5]) [µg/mL] | MIC (A. niger) [µg/mL] | MIC (T. mentagrophytes; [6]) [µg/mL] | MIC (Str. mitis; [7]) [µg/mL] | MIC (C. albicans; [8]) [µg/mL] | MIC (S. aureus; [9]) [µg/mL] | MIC (E. coli; [10]) [µg/mL] | MIC (Str. mutans) [µg/mL] | MIC (Str. sanguis) [µg/mL] | MIC (A. naeslundii) [µg/mL] | MIC (P. aeruginosa) [µg/mL] | Calculus Reduction, Females (dental calculus; females) [%] | Calculus Reduction, Males (dental calculus; males) [%]
1 | CCCCCCCCCCCC[N+](C)(C)CCCNC(=O)C12CC3CC(CC(C3)C1)C2 [Comp.9, 3-(1'-adamantanecarboxamido)propyldimethyldodecyl ammonium bromide] | 12.5 | 0.39 | 6.25 | 0.78 | 50 | 25 | – | – | – | – | – | – | – | – | – | – | –
2 | CCCCCCCCCCCCCC[N+](C)(C)CCCNC(=O)CCCCCCCCCCC.[Cl-] [R C11, R^4 C14, X Cl, 3-Dodecaneamidopropyldimethyltetradecyl ammonium chloride] | – | – | – | – | – | – | 25 | 12.5 | 25 | 6.25 | 100 | – | – | – | – | – | –
3 | CCCCCCCCCCCCCC[N+](C)(C)CCCNC(=O)CCCCCCCCC.[Cl-] [R C9, R^4 C14, X Cl, 3-Decaneamidopropyldimethyltetradecyl ammonium chloride] | – | – | – | – | – | – | 6.25 | 6.25 | 3.12 | 3.12 | 100 | – | – | – | – | – | –
4 | CCCCCCCCCCCCCC[N+](C)(C)CCCNC(=O)CCCCCCCC.[Cl-] [R C8, R^4 C14, X Cl, 3-Nonaneamidopropyldimethyltetradecyl ammonium chloride] | – | – | – | – | – | – | 3.12 | 0.78 | 1.56 | 1.56 | 100 | – | – | – | – | – | –
5 | CCCCCCCCCCCC[N+](C)(C)CCCNC(=O)CCCCCCCC [R C8, R^4 C12, X I] | – | – | – | – | – | – | 12.5 | 1.56 | 1.56 | 0.78 | 12.5 | – | – | – | – | – | –
6 | CCCCCCCCCCCC[N+](CC)(CC)CCNC(=O)C12CC3CC(CC(C3)C1)C2 [R^4 =C12 H25] | 3.12 | – | 1.56 | 1.56 | – | 12.5 | – | – | – | – | – | 0.78 | 3.12 | 0.39 | – | – | –
7 | CCCCCCCCCCCCCC[N+](C)(C)CCCNC(=O)CCCCCCC.[Cl-] [R C7, R^4 C14, X Cl, 3-Octaneamidopropyldimethyltetradecyl ammonium chloride] | – | – | – | – | – | – | 3.12 | 1.56 | 3.12 | 0.78 | 50 | – | – | – | – | – | –
8 | CCCCCCCCCCCC[N+](C)(C)CCCNC(=O)C(CC)CCCC (centres unmarked) [R *C7 branch, R^4 C12, X I] | – | – | – | – | – | – | 12.5 | 3.12 | 3.12 | 1.56 | 50 | – | – | – | – | – | –
9 | CCCCCCCC[N+](CC)(CC)CCNC(=O)C12CC3CC(CC(C3)C1)C2 [R^4 =C8 H17, reference compound] | 50 | – | 50 | 25 | – | 100 | – | – | – | – | – | 25 | 50 | 12.5 | – | – | –
10 | CCCCCCCCCCCCCC[N+](C)(C)CCCNC(=O)[C@H]1CC[C@@H]2CCC[C@@H]21 (relative stereo) [Comp.14, 3-(exo,cis-Bicyclooctane-2-carboxamido)propyltetradecyl dimethyl ammonium bromide] | 3.12 | – | 3.12 | 0.78 | 50 | 25 | – | – | – | – | – | < 0.05 | 6.25 | < 0.05 | 50 | – | –
11 | CCCC[N+](CC)(CC)CCNC(=O)C12CC3CC(CC(C3)C1)C2 [R^4 =C4 H9, reference compound] | 50 | – | 100 | 100 | – | 100 | – | – | – | – | – | 100 | 50 | 100 | – | – | –
12 | CCCCCCCCCCCC(=O)NCCC[N+](C)(C)C [R C11, R^4 C1, X I, reference compound] | – | – | – | – | – | – | 50 | 50 | 50 | 50 | 50 | – | – | – | – | – | –
13 | CCCCCCCCCCCCCC[N+](C)(C)CCCNC(=O)C12CC3CC(CC(C3)C1)C2 [Comp.10, 3-(1'-adamantanecarboxamido)propyldimethyltetradecyl ammonium bromide] | 25 | 0.39 | 6.25 | 0.39 | 25 | 50 | – | – | – | – | – | – | – | – | – | 6.27 | 43.43
14 | CCCCCCCCCC[N+](CC)(CC)CCNC(=O)C12CC3CC(CC(C3)C1)C2 [R^4 =C10 H21] | 50 | – | 6.25 | 3.12 | – | 50 | – | – | – | – | – | 6.25 | 6.25 | 1.56 | – | – | –
15 | CCCCCC[N+](CC)(CC)CCNC(=O)C12CC3CC(CC(C3)C1)C2 [R^4 =C6 H13, reference compound] | 50 | – | 100 | 100 | – | 100 | – | – | – | – | – | 100 | 50 | 50 | – | – | –
16 | CCCCCCCCCCCCCC[N+](C)(C)CCCNC(=O)C(CC)CCCC (centres unmarked) [R *C7 (branch), R^4 C14, X Cl] | – | – | – | – | – | – | 6.25 | 1.56 | 3.12 | 0.78 | 50 | – | – | – | – | – | –
17 | CCCCCCCCCCCCCC[N+](C)(C)CCCNC(=O)C1CC2CCC1C2 (centres unmarked) [Comp.16, 3-(2'-norbornanecarboxamido)propyltetradecyldimethyl ammonium bromide] | 6.25 | – | 3.12 | 1.56 | 50 | 25 | – | – | – | – | – | 0.1 | 1.56 | 0.1 | 50 | – | –
18 | CCCCCCCCCC[N+](C)(C)CCCNC(=O)CCCCCCC.[I-] [Comp.3, 3-Octaneamidopropyldimethyldecyl ammonium iodide] | 12.5 | – | 6.25 | 12.5 | 50 | 25 | – | – | – | – | – | 0.78 | 6.25 | 12.5 | 25 | – | –
19 | CCCCCCCCCCCC[N+](C)(C)CCCNC(=O)[C@H]1CC[C@@H]2CCC[C@@H]21 (relative stereo) [Comp.15] | 6.25 | – | 3.12 | 1.56 | 25 | 25 | – | – | – | – | – | 0.1 | 3.12 | 0.19 | 25 | – | –
